Assay results: PubChem BioAssay (NCI)
Where “and” joins values, the source holds several entries; their conditions need not be identical. Identical values can stand only once.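 96-well plates; 48 h exposure; 5 concentrations. Endpoints by linear interpolation between flanking doses. Not reached: highest tested concentration assigned. At the GI50, growth is halved. TGI: concentration producing complete growth inhibition.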

Tests used:
Test in all cases: growth of human tumour cells (NCI), 48 h
DLD-1 colon = tested on: DLD-1 colon
HOP-18 NSCLC = tested on: HOP-18 NSCLC
KM20L2 colon = tested on: KM20L2 colon
LXFL 529 NSCLC = tested on: LXFL 529 NSCLC
M19-MEL melanoma = tested on: M19-MEL melanoma
XF 498 CNS = tested on: XF 498 CNS
DMS 273 small cell lung = tested on: DMS 273 small cell lung
RXF-631 renal = tested on: RXF-631 renal

NC(CS)C(=O)NCCNc1ccc(NCCNC(=O)C(N)CS)c2c1C(=O)c1c(O)ccc(O)c1C2=O (stereo unspecified)
GI50 (DLD-1 colon): 0.0638 µM
TGI (DLD-1 colon): 1.03 µM and 0.762 µM
GI50 (HOP-18 NSCLC): 0.0307 µM
TGI (HOP-18 NSCLC): 3.9 µM and 0.484 µM
GI50 (KM20L2 colon): 0.195 µM
TGI (KM20L2 colon): 1.49 µM and 1.37 µM
GI50 (LXFL 529 NSCLC): 0.0673 µM
TGI (LXFL 529 NSCLC): 0.927 µM and 0.631 µM
GI50 (M19-MEL melanoma): 0.138 µM
TGI (M19-MEL melanoma): 0.863 µM and 1.01 µM
TGI (XF 498 CNS): 0.463 µM

COc1cc(CC(=O)c2cc3c(cc2-c2ccccc2)OCO3)cc(OC)c1OC
TGI (DLD-1 colon): > 100 µM
TGI (DMS 273 small cell lung): > 100 µM
TGI (HOP-18 NSCLC): > 100 µM
TGI (KM20L2 colon): > 100 µM
TGI (LXFL 529 NSCLC): > 100 µM
TGI (XF 498 CNS): 77.3 µM

Nc1ccn(CCCC(c2ccccc2)P(=O)(O)O)c(=O)n1 (stereo unspecified)
TGI (DLD-1 colon): > 100 µM
TGI (DMS 273 small cell lung): > 100 µM
TGI (HOP-18 NSCLC): > 100 µM
TGI (KM20L2 colon): > 100 µM
TGI (LXFL 529 NSCLC): > 100 µM
TGI (M19-MEL melanoma): > 100 µM

O=C1C(=Cc2ccc([N+](=O)[O-])o2)C(=O)N(CCc2ccccc2)S(=O)(=O)N1CCc1ccccc1
TGI (DLD-1 colon): 34.1 µM
TGI (DMS 273 small cell lung): > 100 µM
TGI (HOP-18 NSCLC): > 100 µM
TGI (KM20L2 colon): > 100 µM
TGI (LXFL 529 NSCLC): 30.6 µM
TGI (M19-MEL melanoma): 31.7 µM
TGI (XF 498 CNS): 34.9 µM

O=C(CSc1nnc(-c2ccc(N=Cc3ccc(Cl)cc3)cc2)o1)Nc1cccc([N+](=O)[O-])c1
TGI (DMS 273 small cell lung): > 100 µM
TGI (HOP-18 NSCLC): > 100 µM
TGI (KM20L2 colon): > 100 µM
TGI (LXFL 529 NSCLC): > 100 µM
TGI (M19-MEL melanoma): > 100 µM

COc1ccc(N2C(=O)C3C=CC(n4[nH]c(=O)n(Cc5ccccc5)c4=O)CC3C2=O)cc1 (stereo unspecified)
TGI (DLD-1 colon): > 100 µM
TGI (DMS 273 small cell lung): > 100 µM
TGI (HOP-18 NSCLC): > 100 µM
TGI (KM20L2 colon): > 100 µM
TGI (LXFL 529 NSCLC): > 100 µM
TGI (M19-MEL melanoma): > 100 µM
TGI (XF 498 CNS): > 100 µM

O=C1C(Cl)C(c2ccc([N+](=O)[O-])cc2)N1n1cnc2ccccc2c1=O (stereo unspecified)
TGI (DLD-1 colon): > 100 µM
TGI (DMS 273 small cell lung): > 100 µM
TGI (HOP-18 NSCLC): > 100 µM
TGI (KM20L2 colon): > 100 µM
TGI (LXFL 529 NSCLC): > 100 µM
TGI (XF 498 CNS): > 100 µM

COc1ccc(C2NC3=C(CCCC3)N2)cc1
TGI (DLD-1 colon): > 100 µM
TGI (DMS 273 small cell lung): > 100 µM
TGI (KM20L2 colon): 80.8 µM
TGI (LXFL 529 NSCLC): > 100 µM
TGI (M19-MEL melanoma): > 100 µM
TGI (XF 498 CNS): > 100 µM

NNC(=S)NN/C=C(\C=Nc1ccccc1)[N+](=O)[O-]
TGI (DLD-1 colon): > 100 µM
TGI (KM20L2 colon): > 100 µM
TGI (LXFL 529 NSCLC): > 100 µM
TGI (M19-MEL melanoma): > 100 µM
TGI (RXF-631 renal): > 100 µM
TGI (XF 498 CNS): > 100 µM

Cc1cc(=O)[nH]c(NNC(C#N)c2ccc(N(C)C)cc2)n1 (stereo unspecified)
TGI (DLD-1 colon): > 100 µM
TGI (DMS 273 small cell lung): > 100 µM
TGI (HOP-18 NSCLC): > 100 µM
TGI (KM20L2 colon): > 100 µM
TGI (M19-MEL melanoma): > 100 µM

COc1cc(CC2C(=O)OCC2[C@@H](OC(C)=O)c2ccc3c(c2)OCO3)c(Br)c(OC)c1OC (stereo partly specified)
TGI (DLD-1 colon): > 100 µM
TGI (DMS 273 small cell lung): > 100 µM
TGI (HOP-18 NSCLC): > 100 µM
TGI (KM20L2 colon): > 100 µM
TGI (LXFL 529 NSCLC): > 100 µM
TGI (M19-MEL melanoma): > 100 µM
TGI (XF 498 CNS): > 100 µM

O=C1NC2OC(CO)C(O)C(O)C2O1 (stereo unspecified)
TGI (DLD-1 colon): > 100 µM
TGI (DMS 273 small cell lung): > 100 µM
TGI (HOP-18 NSCLC): > 100 µM
TGI (KM20L2 colon): > 100 µM
TGI (LXFL 529 NSCLC): > 100 µM
TGI (M19-MEL melanoma): > 100 µM

Brc1ccc(C[N+]23CN4CN(CN(C4)C2)C3)cc1
TGI (DMS 273 small cell lung): 52.9 µM
TGI (KM20L2 colon): > 100 µM
TGI (M19-MEL melanoma): > 100 µM

CCOC(=O)C1=C(O)c2ccc(OC)cc2C(=O)C1=O
TGI (DLD-1 colon): > 100 µM
TGI (DMS 273 small cell lung): > 100 µM
TGI (HOP-18 NSCLC): 66.5 µM
TGI (KM20L2 colon): > 100 µM
TGI (M19-MEL melanoma): 44.4 µM

CC(=O)Nc1ccc(C(=O)n2[nH]c(C)c(/C=C3\C(=O)C=Cc4ccccc43)c2=O)cc1
TGI (DLD-1 colon): > 100 µM
TGI (DMS 273 small cell lung): > 100 µM
TGI (HOP-18 NSCLC): > 100 µM
TGI (M19-MEL melanoma): > 100 µM
TGI (XF 498 CNS): > 100 µM

O=C1NC(Cc2ccccc2)C(=O)N2CCCC12 (stereo unspecified)
TGI (DLD-1 colon): > 100 µM
TGI (DMS 273 small cell lung): > 100 µM
TGI (HOP-18 NSCLC): > 100 µM
TGI (KM20L2 colon): > 100 µM
TGI (LXFL 529 NSCLC): > 100 µM
TGI (M19-MEL melanoma): > 100 µM
TGI (XF 498 CNS): > 100 µM

N/C(=N/N=C/c1cccc(F)c1)NO
TGI (DLD-1 colon): > 100 µM
TGI (DMS 273 small cell lung): > 100 µM
TGI (HOP-18 NSCLC): > 100 µM
TGI (KM20L2 colon): > 100 µM
TGI (LXFL 529 NSCLC): > 100 µM
TGI (M19-MEL melanoma): > 100 µM
TGI (RXF-631 renal): > 100 µM
TGI (XF 498 CNS): > 100 µM

COc1ccc(OC)c(-c2cc(=O)c3cc4c(cc3[nH]2)OCO4)c1
TGI (DLD-1 colon): > 100 µM
TGI (DMS 273 small cell lung): 20.9 µM
TGI (HOP-18 NSCLC): > 100 µM
TGI (KM20L2 colon): 23.7 µM
TGI (LXFL 529 NSCLC): 49.6 µM
TGI (M19-MEL melanoma): > 100 µM
TGI (XF 498 CNS): 35.9 µM

COC(=O)CC1NC(=O)C1C(C)(OC)OC (stereo unspecified)
TGI (DLD-1 colon): > 100 µM
TGI (DMS 273 small cell lung): > 100 µM
TGI (KM20L2 colon): > 100 µM
TGI (LXFL 529 NSCLC): > 100 µM
TGI (M19-MEL melanoma): > 100 µM
TGI (RXF-631 renal): > 100 µM
TGI (XF 498 CNS): > 100 µM

C[C@]12CCC(=O)C=C1CC[C@@H]1C2CC[C@@]2(C)C1CC[C@@H]2OC(=O)C12OC1CCC2=O (stereo partly specified)
TGI (DMS 273 small cell lung): 31.1 µM
TGI (HOP-18 NSCLC): 31.7 µM
TGI (KM20L2 colon): 34.3 µM
TGI (LXFL 529 NSCLC): 28 µM
TGI (M19-MEL melanoma): 30.3 µM
TGI (XF 498 CNS): 27.9 µM

CCCCc1c2c(nc3c1CCCC3=O)CCCC2
TGI (DMS 273 small cell lung): > 100 µM
TGI (KM20L2 colon): > 100 µM
TGI (LXFL 529 NSCLC): > 100 µM
TGI (M19-MEL melanoma): > 100 µM
TGI (XF 498 CNS): > 100 µM
